Test results as given in patent US20060063736A1, “Compositions and methods for inhibiting mucin-type O-linked glycosylation” (priority 2004, published 2006).

Biological target: T1, rppGalNAcT-7 (Rattus norvegicus, UniProt Q9R0C5)
T1 construct: plasmids encoding truncated secreted ppGalNAcTs-1 to −5, -7, -10 and -11; made in house; host or cells: COS-7
T1 sequence (Q9R0C5 30-657 limits assumed): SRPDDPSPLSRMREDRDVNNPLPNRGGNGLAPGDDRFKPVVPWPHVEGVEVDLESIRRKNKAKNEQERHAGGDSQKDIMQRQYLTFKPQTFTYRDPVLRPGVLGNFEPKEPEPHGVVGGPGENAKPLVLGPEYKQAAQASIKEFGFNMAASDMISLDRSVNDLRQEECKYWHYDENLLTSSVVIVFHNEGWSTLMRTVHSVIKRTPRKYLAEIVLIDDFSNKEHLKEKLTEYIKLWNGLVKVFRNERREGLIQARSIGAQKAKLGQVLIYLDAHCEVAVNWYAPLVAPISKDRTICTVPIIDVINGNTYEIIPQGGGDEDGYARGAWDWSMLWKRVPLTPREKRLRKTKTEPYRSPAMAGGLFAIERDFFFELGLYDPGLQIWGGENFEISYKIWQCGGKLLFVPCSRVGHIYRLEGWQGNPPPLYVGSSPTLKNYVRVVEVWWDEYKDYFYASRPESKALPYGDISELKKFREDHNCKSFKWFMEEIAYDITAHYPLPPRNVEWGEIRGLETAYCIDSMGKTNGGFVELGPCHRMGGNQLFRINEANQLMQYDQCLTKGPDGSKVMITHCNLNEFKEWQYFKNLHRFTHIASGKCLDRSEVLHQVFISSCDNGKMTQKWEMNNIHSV
Assay: Radiolabel capture assay, rppGalNAcT-7
Type: biochemical
Settings: MUC5AC glycopeptide
Method: Radiolabel capture assays using ^14C-labeled UDP-GalNAc were performed as previously described with various concentrations of 1-68A or 2-68A in 2% DMSO. Ten Hagen et al. (2001) J. Biol. Chem. 276:17395-17404.
Table 1. IC50 values for 1-68A and 2-68A with ppGalNAcTs-1 to −5, -7, -10, -11, β1-4GalT and α1-3GalT. The requirement of glycopeptides as substrates for ppGalNAcT-7 and -10 precluded the use of the ELLA, as both the substrate and product bind HPA-HRP. Thus, the radiolabel capture assay was employed to measure the IC50 values of 1-68A and 2-68A with ppGalNAcT-7 and -10 using MUC5AC (GTTPSPVPTTSTTSAP; SEQ ID NO:15) glycopeptide, previously shown to be substrate for both enzymes. Ten Hagen et al. (1999) J. Biol. Chem. 274:27867-27874; and Ten Hagen et al. (2001) J. Biol. Chem. 276:17395-17404. IC50 values of 1-68A and 2-68A with ppGalNAcT-5 were performed with α-FLAG purified enzyme and radiolabel capture assay, due to low activity and stability of the crude enzyme. m=murine, r=rattus.

Structure (SMILES) | IC50
O=c1ccn([C@@H]2O[C@H](CON=Cc3ccc(O)c(O)c3O)[C@@H](O)[C@H]2O)c(=O)[nH]1 [1-68A] | 22 ± 2 µM
O=C(CON=Cc1ccc(O)c(O)c1O)NC[C@H]1O[C@@H](n2ccc(=O)[nH]c2=O)[C@H](O)[C@@H]1O [2-68A] | 27 ± 2 µM
